Test results taken from the supplement of paper PMC10721915.

Experiments:
Test in all cases: relative cell growth vs untreated control (GI, NCI-DTP normalisation with time-zero) (fraction of control growth); higher = more growth / less inhibition
Conditions in all cases: treatment time: 120 h
A204 = system: A204
Method: (§1)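 Cancer cell lines in 96-well plates were treated 48 h after seeding with M4076 (ATM inhibitor) and berzosertib (ATR inhibitor), alone or mixed, in 4-fold dilutions for 120 h. Protein was read by sulforhodamine B staining, background-subtracted and normalised NCI-DTP style to untreated control growth. Rows with one concentration equal to 0 are monotherapy.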

ASPC1 = system: ASPC1
Method: as §1

COLO205 = system: COLO205
Method: as §1

HT1080 = system: HT1080
Method: as §1

HT29 = system: HT29
Method: as §1

LOVO = system: LOVO
Method: as §1

MHHES1 = system: MHHES1
Method: as §1

PANC1 = system: PANC1
Method: as §1

SW620 = system: SW620
Method: as §1

U87MG = system: U87MG
Method: as §1

COc1cc2ncc3c(c2cc1-c1cn(C)nc1C)n(-c1c(F)cncc1OC)c(=O)n3C [M4076] + CNCc1ccc(-c2cc(-c3nc(-c4ccc(S(=O)(=O)C(C)C)cc4)cnc3N)on2)cc1 [berzosertib]
relative cell growth
Conditions | A204 | ASPC1 | COLO205 | HT29 | HT1080 | LOVO | MHHES1 | PANC1 | SW620 | U87MG
concentration of first compound 0.0195 µM, concentration of partner 0 M | 1.25 | 1.2 | 1.18 | 1.3 | 1.1 | 1.25 | 1.19 | 1.27 | 1.08 | 1.1
concentration of first compound 0.0195 µM, concentration of partner 0.2 µM | 0.675 | 0.322 | 0.641 | 0.0171 | 0.762 | 0.105 | 0.662 | 0.992 | 0.95 | 0.891
concentration of first compound 0.0781 µM, concentration of partner 0 M | 1.16 | 1.08 | 1.15 | 1.23 | 0.574 | 1.21 | 1.15 | 1.2 | 1.09 | 1.12
concentration of first compound 0.0781 µM, concentration of partner 0.2 µM | 0.9 | 0.194 | 0.668 | 0.0537 | 0.753 | 0.209 | 0.505 | 1.36 | 0.848 | 0.839
concentration of first compound 0.313 µM, concentration of partner 0 M | 1.1 | 1.2 | 1.12 | 1.19 | 0.481 | 1.09 | 1.05 | 1.45 | 1.01 | 1.09
concentration of first compound 0.313 µM, concentration of partner 0.2 µM | 0.654 | 0.0757 | 0.373 | 0.00799 | -0.0371 | 0.0984 | 0.17 | 0.541 | 0.449 | 0.682
concentration of first compound 1 µM, concentration of partner 0 M | 0.83 | 0.84 | 0.959 | 0.888 | 0.54 | 0.971 | 0.809 | 0.96 | 0.958 | 0.966
concentration of first compound 1 µM, concentration of partner 0.0195 µM | 0.965 | 0.803 | 0.916 | 0.81 | 0.752 | 0.763 | 0.753 | 0.764 | 0.922 | 0.944
concentration of first compound 1 µM, concentration of partner 0.0781 µM | 0.785 | 0.418 | 0.37 | 0.27 | 0.155 | 0.508 | 0.224 | 0.526 | 0.646 | 0.82
concentration of first compound 1 µM, concentration of partner 0.313 µM | 0.205 | -0.0794 | 0.105 | -0.0312 | -0.168 | -0.0419 | 0.0239 | 0.0924 | 0.168 | 0.343
concentration of first compound 1 µM, concentration of partner 1.25 µM | -0.0708 | -0.118 | 0.0405 | -0.0506 | -0.178 | -0.0608 | -0.0145 | -0.0345 | 0.0263 | 0.0996
concentration of first compound 1 µM, concentration of partner 5 µM | -0.102 | -0.115 | -0.0244 | -0.0437 | -0.234 | -0.0633 | -0.0266 | -0.0793 | -0.014 | 0.134
concentration of first compound 1.25 µM, concentration of partner 0 M | 0.914 | 0.943 | 1.02 | 1.11 | 0.332 | 1.1 | 0.97 | 1.1 | 0.96 | 1.01
concentration of first compound 1.25 µM, concentration of partner 0.2 µM | 0.685 | 0.0458 | 0.208 | 0.00308 | -0.114 | -0.000928 | 0.0696 | 0.278 | 0.293 | 0.505
concentration of first compound 5 µM, concentration of partner 0 M | 0.524 | 0.675 | 0.892 | 0.933 | 0.478 | 0.981 | 0.65 | 0.743 | 0.916 | 0.853
concentration of first compound 5 µM, concentration of partner 0.2 µM | 0.337 | 0.0314 | 0.172 | -0.00294 | -0.101 | -0.0311 | 0.05 | 0.309 | 0.269 | 0.381

CNCc1ccc(-c2cc(-c3nc(-c4ccc(S(=O)(=O)C(C)C)cc4)cnc3N)on2)cc1 [berzosertib] + COc1cc2ncc3c(c2cc1-c1cn(C)nc1C)n(-c1c(F)cncc1OC)c(=O)n3C [M4076]
relative cell growth, concentration of partner 0 M
Conditions | A204 | ASPC1 | COLO205 | HT29 | HT1080 | LOVO | MHHES1 | PANC1 | SW620 | U87MG
concentration of first compound 0.0195 µM | 1.15 | 1.3 | 1.1 | 1.22 | 2.08 | 1.07 | 1.26 | 1.12 | 1.1 | 1.09
concentration of first compound 0.0781 µM | 1.06 | 1.07 | 0.981 | 0.613 | 2.13 | 0.826 | 1.21 | 1.27 | 1.07 | 1.07
concentration of first compound 0.2 µM | 0.623 | 0.344 | 0.622 | 0.113 | 0.626 | 0.211 | 0.599 | 0.892 | 0.795 | 0.8
concentration of first compound 0.313 µM | 0.583 | 0.0569 | 0.353 | -0.0285 | 0.0933 | 0.0258 | 0.436 | 0.482 | 0.494 | 0.677
concentration of first compound 1.25 µM | -0.0148 | -0.0955 | 0.114 | -0.0598 | -0.162 | -0.0498 | 0.0564 | 0.094 | 0.087 | 0.185
concentration of first compound 5 µM | -0.0897 | -0.077 | 0.00456 | -0.0555 | -0.228 | -0.0599 | -0.0244 | -0.0643 | -0.01 | 0.195
